Experiments:
[1] = tested on: Brca1/P53-deficient mice; assay: Caspase 3 immunohistochemistry as a marker of apoptosis in the mammary gland; type: in vivo
Text: (§1) Subsequently, the same groups of animals indicated were generated and samples were collected from the mammary glands at 1, 3, 7, 30 and 60 days post-gestation (in non-lactating multiparous) or post-weaning (in lactating multiparous, with and without treatment with cabergoline) (N = 5 mice per group at each time studied).
The left inguinal breast of each mouse was embedded in paraffin for further study. Once removed from the animals, the breasts were fixed in 4% paraformaldehyde (Scharlau FO) for 24 hours and, subsequently, they were kept in 70% ethanol at a temperature of 4 °C, until they were processed in the Comparative Molecular Pathology Service of the Salamanca Cancer Research Center. Tissues were dehydrated by three 1-hour incubations in increasing concentrations of ethanol (60%, 80%, and 100%). Three other 1-hour incubations were carried out in xylol, to replace the dehydrating agent with a substance miscible in paraffin. Finally, three other incubations of 1 hour and 20 minutes were carried out with liquid paraffin, after which blocks were made with a mould suitable for the size of the tissue in a paraffin embedding station. When the paraffin blocks were completely cold, 2-µm-thick sections were made using a rotation microtome (Leica RM2255). […]
To quantify cells positive for Ki-67 or caspase 3, the Leica Application Suite (LAS) V3.7 program was used. […]

[2] = tested on: Brca1/P53-deficient mice; assay: Quantification of adipose and ductal tissue areas in the breast (hematoxylin-eosin, ImageJ); type: in vivo; details: for adipose tissue area: vs untreated lactating multiparous mice, P < 0.001
Text: as §1
The left inguinal breast of each mouse was embedded in paraffin for further study. Once removed from the animals, the breasts were fixed in 4% paraformaldehyde (Scharlau FO) for 24 hours and, subsequently, they were kept in 70% ethanol at a temperature of 4 °C, until they were processed in the Comparative Molecular Pathology Service of the Salamanca Cancer Research Center. Tissues were dehydrated by three 1-hour incubations in increasing concentrations of ethanol (60%, 80%, and 100%). Three other 1-hour incubations were carried out in xylol, to replace the dehydrating agent with a substance miscible in paraffin. Finally, three other incubations of 1 hour and 20 minutes were carried out with liquid paraffin, after which blocks were made with a mould suitable for the size of the tissue in a paraffin embedding station. When the paraffin blocks were completely cold, 2-µm-thick sections were made using a rotation microtome (Leica RM2255).
Hematoxylin and eosin staining was performed in the Comparative Molecular Pathology Service of the Salamanca Cancer Research Center using a battery of manual staining following the processes: deparaffinization in xylol, rehydration with ethanol at different graduations, hematoxylin and eosin staining, dehydration with ethanol and clearance. Once the process was finished, the samples were mounted by adding a drop of non-aqueous DPX fixative and the coverslip was placed.
Adipose tissue area and ductal area were evaluated using ImageJ free software. The ductal area was defined as the surface occupied by the epithelium of the ducts together with the surrounding fibrous tissue stroma, excluding the area of the tubular lumen. To evaluate the ductal and adipocyte area, 10 photos were taken at 10X magnification of the surface of the mammary gland of each of the study animals, five photos in the distal area and five in the proximal area of the breast. The photos were taken randomly in each of these areas of the samples stained with hematoxylin-eosin, with a Leica DM1000 light microscope. […] In the proximal area, more adipose tissue and less ductal tissue were observed than in the distal area, and vice versa. For this reason, only the values of the distal zone were determined to carry out the analyses.
The quantification was expressed as a percentage of the total area. […]

C=CCN1C[C@H](C(=O)N(CCCN(C)C)C(=O)NCC)C[C@@H]2c3cccc4[nH]cc(c34)C[C@H]21 [cabergoline, 1-[(6-allylergolin-8ß-yl)-carbonyl]-1-[3-(dimethylamino)propyl]-3-ethylurea]
apoptosis (percentage of apoptotic cells positive against caspase 3) ([1]; 3 days of post-lactational involution, vs untreated multiparous mice, P < 0.0001): significant increase in apoptosis | basal apoptosis of the epithelium (caspase 3) ([1]; 30 days post-weaning): greater basal apoptosis of the epithelium | adipose tissue area ([2]; 3 days after weaning): statistically significant increase in adipose tissue | adipose tissue area ([2]; 7 days after weaning): statistically significant increase in adipose tissue | ductal area ([2]; 30 days post-lactational involution): drastic decrease in ductal area | ductal area (epithelial component) ([2]; 60 days post-lactational involution): great reduction of the epithelial component

— patent publication EP4285905A1, “CABERGOLINE OR A PHARMACEUTICALLY ACCEPTABLE SALT OR SOLVATE THEREOF, FOR USE IN PREVENTION OR DELAY OF POST-PREGNANCY BREAST CANCER IN A FEMALE MAMMAL” (Consejo Superior de Investigaciones Cientificas, priority 2022, dated 2023)
